From ChEMBL document CHEMBL1124825 (J Med Chem, 1990)

Columns and labels:
[1] = biological target: T1, Dihydrofolate reductase (Mus musculus, UniProt P00375); assay: Inhibitory activity of Dihydrofolate reductase derived from L1210 cell line.; assay type: cell-based
T1 sequence (P00375 whole entry): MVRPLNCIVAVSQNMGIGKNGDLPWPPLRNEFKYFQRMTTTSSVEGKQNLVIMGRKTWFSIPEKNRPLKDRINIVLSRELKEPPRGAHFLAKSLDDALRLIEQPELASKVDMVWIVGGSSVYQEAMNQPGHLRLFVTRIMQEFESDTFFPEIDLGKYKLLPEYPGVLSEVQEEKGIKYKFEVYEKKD

[2] = system: L1210; assay: Inhibitory activity for the growth inhibition of L1210 cell line.; assay type: functional, cell-based; settings: Mus musculus
[3] = Relative influx was determined by taking the ratio vs MTX in L1210 cell line; assay type: functional
[4] = Inhibitory activity for Lactobacillus casei Glycinamide ribotide formyltransferase; set-up: species or system Lacticaseibacillus casei
[5] = Inhibitory activity for L1210 Glycinamide ribotide formyltransferase; set-up: species or system Mus musculus

Ki [1]	IC50 [2]	IC50 [4]	IC50 [5]	SMILES	Relative influx [3]
0.013 nM	12.1 nM	–	–	CCC(Cc1cnc2nc(N)nc(N)c2c1)c1ccc(C(=O)NC(CCC(=O)O)C(=O)O)cc1 (stereo unspecified)	1.32
> 1000 nM	34.6 nM	80 nM	660 nM	CCC(CC1CNc2nc(N)nc(O)c2C1)c1ccc(C(=O)NC(CCC(=O)O)C(=O)O)cc1 (stereo unspecified)	1.36
> 1000 nM	50.3 nM	17 nM	1500 nM	CC(CC1CNc2nc(N)nc(O)c2C1)c1ccc(C(=O)NC(CCC(=O)O)C(=O)O)cc1 (stereo unspecified)	1.72
> 1000 nM	57.2 nM	10 nM	500 nM	Nc1nc(O)c2c(n1)CCC(CNc1ccc(C(=O)NC(CCC(=O)O)C(=O)O)cc1)C2 (stereo unspecified)	1.54

SMILES	Ki [1]	IC50 [2]	IC50 [4]	IC50 [5]	Relative influx [3]
CC(Cc1cnc2nc(N)nc(N)c2c1)c1ccc(C(=O)NC(CCC(=O)O)C(=O)O)cc1 (stereo unspecified)	0.007 nM	23.9 nM	–	–	1.43
